Experimental data from EP0888346B1, “CORALYNE ANALOGS AS TOPOISOMERASE INHIBITORS” (RUTGERS, THE STATE UNIVERSITY OF NEW JERSEY, priority 1996, dated 1997).

Columns and labels:
[1] = tested on: yeast cells expressing functional yeast topoisomerase I; assay: Yeast cytotoxicity assay, strain expressing wild-type yeast topo I; format: cell-based, S. cerevisiae; settings: plates with 1 µM drug (camptothecin 0.5 µM), 3 days at 30°C
From the text: (§1) It has been established that yeast can survive when topoisomerase I function is obliterated, and that the topoisomerase I poisons only kill cells having a functional topoisomerase I (Bjornsti et al. Cancer Res. 49:6318-6323 (1989)).
(§2) The topoisomerase I-specific in vivo cytotoxicity assay was adapted from Knab et al. (Knab et al., J. Biol. Chem. 268:22322-22330 (1993)). In this system, various topo I genes cloned into the single copy yeast plasmid vector, YCpGAL1 (Knab et al., J. Biol. Chem. 268:22322-22330 (1993)), are expressed under the control of the GAL1 promoter in the JN2-134 strain of S. cerevisiae (MATa, rad52::LEU2, trp1, ade2-1,his7, ura3-52, isel, top1-1, leu2) (Bjornsti et al., Cancer Res. 49:6318-6323 (1989)). The topo I constructs in the vector are, respectively, the wild-type yeast topo I (YCpGAL-ScTOP1), a non-functional yeast topo I where the active site tyrosine-727 is mutated to a phenylalanine (YCpGAL1-Sctop1Y727F) (Knab et al., J. Biol. Chem. 268:22322-22330 (1993)), and the wild type human topoisomerase I (YCpGAL-hTOP1) (Bjornsti et al., Cancer Res. 49:6318-6323 (1989)). To qualitatively test the cytotoxicity and the topo I specificity of the drugs, yeast cells containing the specific plasmid were serially diluted (5-fold) and were grown in dropout medium supplemented with uracil and 2% galactose In addition, the plates contained: A: Control, no drug in the plate; B: Camptothecin (CPT), 0.5 µM; C: Coralyne, 1 µM; D: Methylenedioxy-dihydro-demethyl-coralyne (MDD-Coralyne), 1 µM, and E: Nitidine, 1 µM. The plates were grown for 3 days at 30°C to assess the lethal effect of the different compounds on the various topoisomerase I enzymes expressed in S. cerevisiae.and the drug being tested.

[2] = tested on: yeast cells expressing human topoisomerase I; assay: Yeast cytotoxicity assay, strain expressing human topo I; format: cell-based, S. cerevisiae; settings: plates with 1 µM drug (camptothecin 0.5 µM), 3 days at 30°C
From the text: as §1, §2

[3] = molecular target: T1, recombinant CPT-K5 topoisomerase I (Homo sapiens, UniProt P11387, D533G); assay: Cleavage assay with camptothecin-resistant mutant topo I; format: biochemical; settings: relative to wildtype human topoisomerase I
T1 construct: 15 amino acid vector-derived fusion (pET-11a leader); made in house; host or cells: E. coli BL21(DE3)
T1 sequence (P11387 1-765 D533G): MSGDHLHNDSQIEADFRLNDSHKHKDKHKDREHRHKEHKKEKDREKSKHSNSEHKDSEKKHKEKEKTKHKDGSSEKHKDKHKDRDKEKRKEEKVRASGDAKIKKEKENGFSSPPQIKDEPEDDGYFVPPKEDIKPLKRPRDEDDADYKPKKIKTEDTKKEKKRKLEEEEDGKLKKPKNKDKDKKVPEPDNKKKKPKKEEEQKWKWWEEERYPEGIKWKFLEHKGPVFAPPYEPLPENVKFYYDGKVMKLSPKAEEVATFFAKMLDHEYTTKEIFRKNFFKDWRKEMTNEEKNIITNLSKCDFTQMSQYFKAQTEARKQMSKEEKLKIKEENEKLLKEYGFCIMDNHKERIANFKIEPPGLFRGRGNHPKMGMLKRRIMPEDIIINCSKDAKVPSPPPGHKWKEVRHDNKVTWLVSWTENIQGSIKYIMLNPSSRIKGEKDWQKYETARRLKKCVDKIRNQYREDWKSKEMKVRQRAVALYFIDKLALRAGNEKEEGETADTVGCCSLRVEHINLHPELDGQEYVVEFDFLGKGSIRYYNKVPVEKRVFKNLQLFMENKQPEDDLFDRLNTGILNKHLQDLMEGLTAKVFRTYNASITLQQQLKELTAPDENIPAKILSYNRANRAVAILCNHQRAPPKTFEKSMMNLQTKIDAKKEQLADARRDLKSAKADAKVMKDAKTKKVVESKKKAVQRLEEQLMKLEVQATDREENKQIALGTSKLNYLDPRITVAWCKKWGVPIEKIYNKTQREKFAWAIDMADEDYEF
Procedure: Cleavage assays for the recombinant topoisomerases I and calf thymus topoisomerases I and II were done as described (Liu et al., J. Biol. Chem. 258:15365-15370 (1983)). The plasmid YEpG DNA used for the cleavage assays was prepared and labeled at its 3'-end using the published procedures.

[4] = tested on: yeast cells expressing non-functional yeast topoisomerase I; assay: Yeast cytotoxicity assay, strain expressing non-functional yeast topo I; format: cell-based, S. cerevisiae; settings: plates with 1 µM drug (camptothecin 0.5 µM), 3 days at 30°C
From the text: as §1, §2

[5] = tested on: Human lymphoblast RPMI 8402 cells; assay: MTT-microtiter plate tetrazolinium cytotoxicity assay (MTA); format: cell-based; settings: Homo sapiens, RPMI 8402, 96 h, read-out: Cytotoxicity RPMI 8402
From the text: (§3) The results were plotted and the IC50 then measured.

[6] = tested on: glioblastoma cell line SF-268; assay: MTA cytotoxicity assay, glioblastoma cells; format: cell-based; settings: Homo sapiens, SF-268, 96 h, read-out: Cytotoxicity SF-268
Procedure: as §3
(§4) The coralyne analog 7c was tested for its effectiveness against glioblastoma cells. The assay used was similar to that described above for the RPMI-8402 cell line. The results are shown in table 2 below which compares the effect of Compound 7c against the leukemia cell line (RPMI 8402), epidermal carncinoma (KB3-1) and glioblastoma (SF-268): Table 2

[7] = tested on: human epidermoid carcinoma KB 3-1 cell line; assay: MTA cytotoxicity assay, epidermoid carcinoma cells; format: cell-based; settings: KB 3-1, 96 h, read-out: Cytotoxicity KB3-1
Procedure: as §3, §4

In the case of COc1cc2c[n+](C)c3c4cc5c(cc4ccc3c2cc1OC)OCO5 [Nitidine, nitidine], the “cytotoxicity against yeast cells expressing functional yeast topoisomerase I (in words)” value [1] is reported as “not cytotoxic”, the “cytotoxicity against yeast cells expressing human topoisomerase I (in words)” value [2] is reported as “highly cytotoxic” and the “resistance of recombinant CPT-K5 topoisomerase I to the drug” value [3] is reported as “less than 10 fold”. For the same compound, the “cytotoxicity against yeast cells expressing non-functional yeast topoisomerase I (in words)” value [4] was “not cytotoxic”.

COc1cc2cc3c4cc(OC)c(OC)cc4cc[n+]3c(C)c2cc1OC [coralyne] was tested, and the “cytotoxicity against yeast cells expressing functional yeast topoisomerase I (in words)” value [1] was “resistant”, the IC50 [5] was 3 µg/mL and the IC50 [6] was 0.1 µg/mL. The “cytotoxicity against yeast cells expressing human topoisomerase I (in words)” value [2] was “no cytotoxicity”, the IC50 [7] was 0.9 µg/mL and the “cytotoxicity against yeast cells expressing non-functional yeast topoisomerase I (in words)” value [4] was “no cytotoxicity”.
